{"source": "patent US10870647B2", "about": "“Imidazopyridine derivative, method for preparing same, and pharmaceutical composition containing same as active ingredient for preventing or treating cancer” (DAEGU-GYEONGBUK MEDICAL INNOVATION FOUNDATION, priority 2016, dated 2020)", "assay_in_all_cases": "Kinase selectivity, scanMAX Kinase assay panel (DiscoverX), % control at 1 uM", "type_in_all_cases": "binding", "key": {"[1]": {"target": "T1, scanMAX Kinase assay panel (Homo sapiens, UniProt Q86UE8)", "T1 construct": "purchased DiscoverX", "T1 sequence (Q86UE8 whole entry)": "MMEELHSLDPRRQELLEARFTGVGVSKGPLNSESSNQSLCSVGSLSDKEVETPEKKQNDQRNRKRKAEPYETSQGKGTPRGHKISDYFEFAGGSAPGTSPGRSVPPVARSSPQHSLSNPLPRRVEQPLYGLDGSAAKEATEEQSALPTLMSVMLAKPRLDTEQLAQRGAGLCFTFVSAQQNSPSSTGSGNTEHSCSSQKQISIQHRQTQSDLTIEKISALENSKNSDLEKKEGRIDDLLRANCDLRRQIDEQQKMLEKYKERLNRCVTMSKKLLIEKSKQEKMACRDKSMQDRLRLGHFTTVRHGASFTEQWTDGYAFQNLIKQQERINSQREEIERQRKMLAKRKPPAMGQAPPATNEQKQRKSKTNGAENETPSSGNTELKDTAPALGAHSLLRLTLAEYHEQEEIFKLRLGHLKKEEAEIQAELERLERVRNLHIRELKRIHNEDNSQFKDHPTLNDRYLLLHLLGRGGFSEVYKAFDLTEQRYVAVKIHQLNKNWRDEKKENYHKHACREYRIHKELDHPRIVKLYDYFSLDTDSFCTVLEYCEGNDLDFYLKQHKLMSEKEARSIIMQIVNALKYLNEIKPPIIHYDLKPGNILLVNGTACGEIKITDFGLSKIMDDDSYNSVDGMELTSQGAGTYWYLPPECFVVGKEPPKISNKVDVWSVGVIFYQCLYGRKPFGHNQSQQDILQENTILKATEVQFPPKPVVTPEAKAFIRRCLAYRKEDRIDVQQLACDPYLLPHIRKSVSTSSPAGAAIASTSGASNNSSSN", "conditions": "TLK2; 1 uM; read-out: Percent Control (%)", "procedure,_shortened": "(§1)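 Each kinase was first exposed to the test compound at 1 uM in DMSO. Signal was then normalised to positive and negative controls to give % control. Finally, any enzyme showing <35% control was judged inhibited.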"}, "[2]": {"target": "T2, scanMAX Kinase assay panel (Homo sapiens, UniProt P10721)", "T2 construct": "purchased DiscoverX", "T2 sequence (P10721 26-976)": "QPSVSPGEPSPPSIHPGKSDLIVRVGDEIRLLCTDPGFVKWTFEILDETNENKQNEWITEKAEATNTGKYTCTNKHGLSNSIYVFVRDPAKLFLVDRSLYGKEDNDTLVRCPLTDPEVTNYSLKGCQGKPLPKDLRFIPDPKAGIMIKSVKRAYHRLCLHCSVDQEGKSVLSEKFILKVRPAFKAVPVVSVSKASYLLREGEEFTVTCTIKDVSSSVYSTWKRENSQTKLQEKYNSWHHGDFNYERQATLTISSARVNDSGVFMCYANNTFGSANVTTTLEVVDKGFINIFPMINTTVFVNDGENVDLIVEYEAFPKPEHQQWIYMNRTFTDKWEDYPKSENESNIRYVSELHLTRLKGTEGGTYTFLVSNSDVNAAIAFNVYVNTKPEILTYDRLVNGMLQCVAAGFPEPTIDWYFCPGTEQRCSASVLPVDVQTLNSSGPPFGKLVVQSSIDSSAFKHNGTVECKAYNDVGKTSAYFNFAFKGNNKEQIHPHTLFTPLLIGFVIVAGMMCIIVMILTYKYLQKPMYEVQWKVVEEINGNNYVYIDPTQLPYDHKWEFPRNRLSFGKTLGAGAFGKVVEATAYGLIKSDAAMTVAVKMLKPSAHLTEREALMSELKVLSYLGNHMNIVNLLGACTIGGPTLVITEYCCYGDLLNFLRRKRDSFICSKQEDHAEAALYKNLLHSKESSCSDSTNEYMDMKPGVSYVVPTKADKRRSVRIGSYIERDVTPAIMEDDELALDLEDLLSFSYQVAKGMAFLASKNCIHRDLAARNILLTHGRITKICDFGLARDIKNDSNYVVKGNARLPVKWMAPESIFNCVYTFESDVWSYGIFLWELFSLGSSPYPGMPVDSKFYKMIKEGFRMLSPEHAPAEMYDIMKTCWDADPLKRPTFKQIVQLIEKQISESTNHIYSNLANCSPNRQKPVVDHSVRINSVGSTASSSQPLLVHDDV", "conditions": "1 uM, read-out: Percent Control (%)", "procedure,_shortened": "as §1"}, "[3]": {"target": "T3, scanMAX Kinase assay panel (Homo sapiens, UniProt P51955)", "T3 construct": "purchased DiscoverX", "T3 sequence (P51955 1-445)": "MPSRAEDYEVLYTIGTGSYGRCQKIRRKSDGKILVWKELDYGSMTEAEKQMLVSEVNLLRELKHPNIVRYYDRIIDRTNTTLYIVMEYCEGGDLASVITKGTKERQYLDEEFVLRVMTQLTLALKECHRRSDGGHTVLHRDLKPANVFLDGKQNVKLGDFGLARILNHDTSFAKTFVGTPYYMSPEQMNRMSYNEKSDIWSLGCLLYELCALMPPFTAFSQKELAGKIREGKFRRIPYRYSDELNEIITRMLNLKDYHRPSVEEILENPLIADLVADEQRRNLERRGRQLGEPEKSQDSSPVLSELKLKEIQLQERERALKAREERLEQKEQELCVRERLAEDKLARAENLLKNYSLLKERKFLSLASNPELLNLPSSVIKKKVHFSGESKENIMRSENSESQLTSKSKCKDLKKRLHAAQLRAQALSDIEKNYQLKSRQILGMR", "conditions": "NEK2; 1 uM; read-out: Percent Control (%)", "procedure,_shortened": "as §1"}, "[4]": {"target": "T4, scanMAX Kinase assay panel (Homo sapiens, UniProt P50613)", "T4 construct": "purchased DiscoverX", "T4 sequence (P50613 whole entry)": "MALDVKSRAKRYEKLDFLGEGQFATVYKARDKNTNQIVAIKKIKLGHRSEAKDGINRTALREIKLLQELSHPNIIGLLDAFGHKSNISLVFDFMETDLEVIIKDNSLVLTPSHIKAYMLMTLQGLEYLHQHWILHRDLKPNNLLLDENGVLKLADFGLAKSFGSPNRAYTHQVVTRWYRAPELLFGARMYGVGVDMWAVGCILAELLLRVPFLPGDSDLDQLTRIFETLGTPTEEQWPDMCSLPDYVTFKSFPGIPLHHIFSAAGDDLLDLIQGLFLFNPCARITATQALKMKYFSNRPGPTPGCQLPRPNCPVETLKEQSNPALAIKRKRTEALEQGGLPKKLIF", "conditions": "CDK7; 1 uM; read-out: Percent Control (%)", "procedure,_shortened": "as §1"}, "[5]": {"target": "T5, scanMAX Kinase assay panel (Homo sapiens, UniProt Q32MK0)", "T5 construct": "purchased DiscoverX", "T5 sequence (Q32MK0 1-819)": "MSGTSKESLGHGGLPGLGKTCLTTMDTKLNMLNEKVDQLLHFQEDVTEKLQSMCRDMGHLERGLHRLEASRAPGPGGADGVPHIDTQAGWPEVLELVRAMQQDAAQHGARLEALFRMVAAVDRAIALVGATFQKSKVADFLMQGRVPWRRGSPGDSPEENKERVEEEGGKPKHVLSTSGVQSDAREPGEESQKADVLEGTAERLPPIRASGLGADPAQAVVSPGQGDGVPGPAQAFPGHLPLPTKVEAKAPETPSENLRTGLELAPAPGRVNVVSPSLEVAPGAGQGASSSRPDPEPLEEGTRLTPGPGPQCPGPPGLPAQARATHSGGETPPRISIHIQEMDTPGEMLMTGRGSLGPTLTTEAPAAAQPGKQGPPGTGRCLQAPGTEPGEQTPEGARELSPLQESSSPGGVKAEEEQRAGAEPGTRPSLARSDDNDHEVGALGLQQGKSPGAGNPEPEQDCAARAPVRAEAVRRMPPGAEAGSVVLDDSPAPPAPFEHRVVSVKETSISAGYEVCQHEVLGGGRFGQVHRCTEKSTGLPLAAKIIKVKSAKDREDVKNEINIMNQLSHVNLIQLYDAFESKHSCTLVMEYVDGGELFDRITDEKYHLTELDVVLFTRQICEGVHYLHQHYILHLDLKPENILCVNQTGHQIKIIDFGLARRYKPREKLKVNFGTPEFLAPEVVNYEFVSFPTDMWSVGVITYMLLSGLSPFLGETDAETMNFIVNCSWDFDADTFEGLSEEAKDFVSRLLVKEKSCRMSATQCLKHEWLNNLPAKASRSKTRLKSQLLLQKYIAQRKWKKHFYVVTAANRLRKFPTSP", "conditions": "MLCK; 1 uM; read-out: Percent Control (%)", "procedure,_shortened": "as §1"}, "[6]": {"target": "T6, scanMAX Kinase assay panel (Homo sapiens, UniProt Q9Y463)", "T6 construct": "purchased DiscoverX", "T6 sequence (Q9Y463 whole entry)": "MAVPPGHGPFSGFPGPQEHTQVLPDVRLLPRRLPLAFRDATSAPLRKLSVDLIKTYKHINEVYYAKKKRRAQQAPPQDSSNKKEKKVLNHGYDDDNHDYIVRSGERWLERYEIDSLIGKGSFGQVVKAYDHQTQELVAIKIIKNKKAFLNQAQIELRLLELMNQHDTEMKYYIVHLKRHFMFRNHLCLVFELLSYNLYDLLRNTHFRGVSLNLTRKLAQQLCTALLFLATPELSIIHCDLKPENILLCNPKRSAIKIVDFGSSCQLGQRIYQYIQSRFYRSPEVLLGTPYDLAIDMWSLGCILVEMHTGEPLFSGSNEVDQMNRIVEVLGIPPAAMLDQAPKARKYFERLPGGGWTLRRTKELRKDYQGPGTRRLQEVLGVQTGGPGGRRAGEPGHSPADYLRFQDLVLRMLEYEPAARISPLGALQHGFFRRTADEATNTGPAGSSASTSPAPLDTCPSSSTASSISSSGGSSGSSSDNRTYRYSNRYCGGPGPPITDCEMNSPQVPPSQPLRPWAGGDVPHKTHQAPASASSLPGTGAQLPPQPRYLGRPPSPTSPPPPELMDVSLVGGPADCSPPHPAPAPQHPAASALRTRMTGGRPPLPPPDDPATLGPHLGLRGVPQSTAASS", "conditions": "DYRK1B; 1 uM; read-out: Percent Control (%)", "procedure,_shortened": "as §1"}}, "note": "Read-outs that look alike come from different tables or passages of the source.", "data": [{"smiles": "Cc1ccc(C(=O)Nc2ccc(CN3CCN(C)CC3)c(C(F)(F)F)c2)cc1C#Cc1cnc2c(Nc3cnn(C)c3)cccn12", "note": "[Example 1, 4-methyl-3-((8-((1-methyl-1H-pyrazol-4-yl)amino)imidazo[1,2-a]pyridin-3-yl)ethynyl)-N-(4-((4-methylpiperazin-1-yl)methyl)-3-(trifluoromethyl)phenyl)benzamide]", "values": [{"measurement": "remaining binding at 1 µM", "setting": "[1]", "value": 86, "unit": "%"}, {"measurement": "remaining binding at 1 µM", "setting": "[2]; KIT-autoinhibited", "value": 77, "unit": "%"}, {"measurement": "remaining binding at 1 µM", "setting": "[2]; KIT", "value": 0, "unit": "%"}, {"measurement": "remaining binding at 1 µM", "setting": "[3]", "value": 80, "unit": "%"}, {"measurement": "remaining binding at 1 µM", "setting": "[4]", "value": 4, "unit": "%"}, {"measurement": "remaining binding at 1 µM", "setting": "[5]", "value": 90, "unit": "%"}, {"measurement": "remaining binding at 1 µM", "setting": "[6]", "value": 93, "unit": "%"}]}, {"smiles": "Cc1cn(-c2cc(NC(=O)c3ccc(C)c(C#Cc4cnc5c(Nc6cnn(C)c6)cccn45)c3)cc(C(F)(F)F)c2)cn1", "note": "[Example 12, 4-methyl-N-(3-(4-methyl-1H-imidazol-1-yl)-5-(trifluoromethyl)phenyl)-3-((8-((1-methyl-1H-pyrazol-4-yl)amino)imidazo[1,2-a]pyridin-3-yl)ethynyl)benzamide]", "values": [{"measurement": "remaining binding at 1 µM", "setting": "[1]", "value": 97, "unit": "%"}, {"measurement": "remaining binding at 1 µM", "setting": "[2]; KIT-autoinhibited", "value": 98, "unit": "%"}, {"measurement": "remaining binding at 1 µM", "setting": "[2]; KIT", "value": 1, "unit": "%"}, {"measurement": "remaining binding at 1 µM", "setting": "[3]", "value": 100, "unit": "%"}, {"measurement": "remaining binding at 1 µM", "setting": "[4]", "value": 66, "unit": "%"}, {"measurement": "remaining binding at 1 µM", "setting": "[5]", "value": 91, "unit": "%"}, {"measurement": "remaining binding at 1 µM", "setting": "[6]", "value": 100, "unit": "%"}]}, {"smiles": "Cc1ccc(NC(=O)C2(C(=O)Nc3ccc(F)cc3)CC2)cc1C#Cc1cnc2c(Nc3cnn(C(C)C)c3)cccn12", "note": "[Example 78]", "values": [{"measurement": "remaining binding at 1 µM", "setting": "[1]", "value": 100, "unit": "%"}, {"measurement": "remaining binding at 1 µM", "setting": "[2]; KIT-autoinhibited", "value": 93, "unit": "%"}, {"measurement": "remaining binding at 1 µM", "setting": "[2]; KIT", "value": 0, "unit": "%"}, {"measurement": "remaining binding at 1 µM", "setting": "[3]", "value": 100, "unit": "%"}, {"measurement": "remaining binding at 1 µM", "setting": "[4]", "value": 82, "unit": "%"}, {"measurement": "remaining binding at 1 µM", "setting": "[5]", "value": 100, "unit": "%"}, {"measurement": "remaining binding at 1 µM", "setting": "[6]", "value": 99, "unit": "%"}]}]}
